Patent US11053226B2, “KRAS G12C inhibitors and methods of using the same” (Amgen Inc., priority 2018, dated 2021)
Where two headings read alike, the source gives them in different places.

Columns and labels:
[1] = tested on: Phosphorylation of ERK1/2 in MIA PaCa-2 cells; experiment: Phospho-ERK1/2 MSD Assay; format: cell-based; settings: MiaPaCa-2 cells
Method: For compounds in Table 9, the following assay conditions were employed:
Phospho-ERK1/2 MSD Assay:
Sixteen hours prior to compound treatment, MIA PaCa-2 cells were seeded in 96-well cell culture plates at a density of 25,000 cells/well and incubated at 37° C., 5% CO2. […] Following compound treatment, cells were stimulated with 10 ng/mL EGF (Roche 11376454001) for 10 min, washed with ice-cold Dulbecco's phosphate-buffered saline, no Ca^2+ or Mg^2+ (ThermoFisher Scientific 14190144), and then lysed in RIPA buffer (50 mM Tris-HCl pH 7.5, 1% Igepal, 0.5% sodium deoxycholate, 150 mM NaCl, and 0.5% sodium dodecyl sulfate) containing protease inhibitors (Roche 4693132001) and phosphatase inhibitors (Roche 4906837001). […] Assay plates were read on a Meso Scale Discovery Sector Imager 6000, and data were analyzed using a 4-parameter logistic model to calculate IC50 values.

[2] = tested on: Phosphorylation of ERK1/2 in A549 cells; experiment: Phospho-ERK1/2 MSD Assay (A549); format: cell-based; settings: read-out: pERK IC50 (4 h, A549), 4 h compound treatment
[3] = Homo sapiens, MIA PaCa-2, 4 h, read-out: pERK IC50 (4 h, MiaPaCa-2), 4 h compound treatment

| Compound | IC50 ([1]; read-out: pERK IC50 (4 h, MiaPaCa-2), 4 h compound treatment) [µM] | IC50 [2] [µM] | IC50 [1, 3] [µM] | IC50 ([2]; Homo sapiens, A549, 4 h) [µM] |
| --- | --- | --- | --- | --- |
| C=CC(=O)N1CC(NC(=O)Cn2cc(C(=O)N3CCc4cc(Br)ccc4C3)c3cc(Br)ccc32)C1 [Example 106] | 22.2 | 44.7 |  |  |
| C=CC(=O)N1CC(NC(=O)Cn2cc(C(=O)OC)c3cc(Br)ccc32)C1 [Example 108] |  |  | 23.5 | > 100 |
| C=CC(=O)N1CC(NC(=O)Cn2c(C)c(C(=O)N3CCc4ncccc4C3)c3cc(Br)ccc32)C1 [Example 116] |  |  | 28.5 | > 100 |
| C=CC(=O)N1CC(NC(=O)Cn2cc(C(=O)N3CCc4c(Br)cc(C)cc4C3)c3cc(Br)ccc32)C1 [Example 120] |  |  | 30.8 | 28.4 |
| C=CC(=O)N1CC(NC(=O)Cn2cc(C(=O)NCCc3nccs3)c3cc(Br)ccc32)C1 [Example 123] |  |  | 32.4 | > 100 |
| C=CC(=O)N1CC(NC(=O)Cn2cc(C(=O)N3CCc4cc(C(=O)OC)ccc4C3)c3cc(Br)ccc32)C1 [Example 124] |  |  | 32.9 | > 100 |
| C=CC(=O)N1CC(NC(=O)C(C)n2c(C)c(C(=O)N3CCc4c(cccc4OC)C3)c3cc(Cl)ccc32)C1 (stereo not drawn) [Example 126] |  |  | 33.9 | 48.4 |
| C=CC(=O)N1CC(NC(=O)Cn2cc(C(=O)NCC(c3sccc3C)N(C)C)c3cc(Br)ccc32)C1 (stereo not drawn) [Example 127] |  |  | 34.3 | > 100 |
| C=CC(=O)N1CC(NC(=O)Cn2cc(C(=O)N3CCc4c(C#N)cccc4C3)c3cc(Br)ccc32)C1 [Example 134] |  |  | 38 | > 100 |
| C=CC(=O)N1CC(NC(=O)Cn2cc(C(=O)N3CCOC(c4ccccc4)C3)c3cc(Br)ccc32)C1 (stereo not drawn) [Example 138] |  |  | 40.5 | > 100 |
| C=CC(=O)N1CC(NC(=O)Cn2cc(C(=O)N3CC4(CCN4c4ccccn4)C3)c3cc(Br)ccc32)C1 [Example 148] |  |  | 50.2 | > 100 |
| C=CC(=O)N1CC(NC(=O)Cn2cc(C(=O)NCCOc3ccccc3C)c3cc(Br)ccc32)C1 [Example 156] |  |  | 53.4 | > 100 |
| C=CC(=O)N1CC(NC(=O)Cn2cc(C(=O)N3CCc4c(OC)ccc(Br)c4C3)c3cc(Br)ccc32)C1 [Example 157] |  |  | 53.6 | 42.5 |
| C=CC(=O)N1CC(NC(=O)Cn2cc(C(=O)N3CCN(c4ccc(CN(C)C)cn4)CC3)c3cc(Br)ccc32)C1 [Example 159] |  |  | 57.4 | > 100 |
| C=CC(=O)N1CC(NC(=O)Cn2cc(C(=O)N3CCN(c4ccc([N+](=O)[O-])cc4)CC3)c3cc(Br)ccc32)C1 [Example 166] |  |  | > 100 | > 100 |
| C=CC(=O)N1CC(NC(=O)Cn2cc(C(=O)NCCC(=O)Nc3ccccc3CC)c3cc(Br)ccc32)C1 [Example 167] |  |  | > 100 | > 100 |
| C=CC(=O)N1CC(NC(=O)Cn2cc(C(=O)NCCc3c(OC)ccc4ccccc34)c3cc(Br)ccc32)C1 [Example 168] |  |  | > 100 | > 100 |
| C=CC(=O)N1CC(NC(=O)Cn2cc(C(=O)NCCC(=O)Nc3cc(C)ccc3C)c3cc(Br)ccc32)C1 [Example 169] |  |  | > 100 | > 100 |
| C=CC(=O)N1CC(NC(=O)Cn2cc(C(=O)NCCc3nc4c(s3)CCCC4)c3cc(Br)ccc32)C1 [Example 171] |  |  | > 100 | > 100 |
| C=CC(=O)N1CC(NC(=O)Cn2cc(C(=O)NCCCc3nc(C)cs3)c3cc(Br)ccc32)C1 [Example 172] |  |  | > 100 | > 100 |
| C=CC(=O)N1CC(NC(=O)Cn2cc(C(=O)NCCN(C)c3cccc(C)c3)c3cc(Br)ccc32)C1 [Example 173] |  |  | > 100 | > 100 |
| C=CC(=O)N1CC(NC(=O)Cn2cc(C(=O)NCCc3nc4ccccc4n3C)c3cc(Br)ccc32)C1 [Example 174] |  |  | > 100 | > 100 |
| C=CC(=O)N1CC(NC(=O)Cn2cc(C(=O)On3nnc4cccnc43)c3cc(Br)ccc32)C1 [Example 175] |  |  | > 100 | > 100 |
| C=CC(=O)N1CC(NC(=O)Cn2c(C)c(C(=O)NCCC(=O)Nc3ccccc3CC)c3cc(Br)ccc32)C1 [Example 179] |  |  | > 100 | > 100 |
